Where a name gives a salt, the structure may show the parent alone. Read-outs that look alike come from different tables or passages of the source. One block for each molecule: values may come before it.
Columns and labels:
[1] = system: ADP-induced platelet aggregation; settings: cited from earlier work
[2] = Analyte stability during storage in citrate or EDTA treated feline plasma; assay type: physicochemical; settings: for Time stable at room temperature: EDTA treated feline plasma; for Deviation from nominal concentration (%): EDTA treated plasma, spike CAM-D 100, clopidogrel 38.3, acid 500 ng/mL; for Time stable at −80°C: citrate treated feline plasma; for Time stable at room temperature (abstract) / Time stable at −80°C (abstract): feline plasma
[3] = in vivo, po
[4] = humans; cited from earlier work
in vivo = settings: po, 18.75 mg
[5] = system: feline cardiogenic thromboembolism; settings: cats; cited from earlier work
[6] = cited from earlier work

Compound: COC(=O)C(c1ccccc1Cl)N1CCC(S)C(=CC(=O)O)C1 (stereo not shown) [H4]
Antiplatelet activity relative to H2 [1]: about twice the activity of H2

Compound: COC(=O)C(c1ccccc1Cl)N1CCC2SC(=O)C=C2C1.Cl (stereo not shown) [2-oxo-clopidogrel, 2-oxo-clopidogrel hydrochloride]
Stability in feline plasma (in words) ([2]; all storage temperatures tested, EDTA and citrate treated plasma): unstable
Decrease from nominal concentration within 6 hours ([2]; all storage temperatures tested, EDTA treated and citrate treated plasma, data not shown): > 25%

AUC that was extrapolated [3]: 15–20%
Cmax and AUC values compared with clopidogrel and CAM-D ([3]; 18.75 mg): over 100 fold
Cmax values (range of both cats) ([3]; 18.75 mg): 2,900–3,300 ng/mL
Elimination half-life compared with clopidogrel and CAM-D ([3]; 18.75 mg): about 2 times
Time post administration at which Cmax was reached (both cats) ([3]; 18.75 mg): 1.5 to 2 h
Time stable at room temperature [2]: at least 1 week
Deviation from nominal concentration (%) ([2]; 4°C, 6 h): −6%
Deviation from nominal concentration (%) ([2]; RT, 1 wk): −1%
Deviation from nominal concentration (%) ([2]; RT, 24 h): −2%
Deviation from nominal concentration (%) ([2]; RT, 48 h): −10%
Deviation from nominal concentration (%) ([2]; RT, 72 h): 1%
Time stable at −80°C [2]: at least 9 months
Time stable at room temperature (abstract) [2]: 1 week
Time stable at −80°C (abstract) [2]: 9 months
Compound: O=C(O)[C@H](c1ccccc1Cl)N1CCc2sccc2C1 [Clopidogrel carboxylic acid, clopidogrel carboxylic acid]

AUC(0-t) (in vivo; AUClast (0 to 24hrs)): 374 ng·h/mL
Cmax (in vivo; Cmax): 134 ng/mL
half-life (in vivo; t1/2 (elimination half-life)): 5.4 h
AUC that was extrapolated ([3]; cat): < 2%
AUClast (0 to 24hrs) ([3]; 18.75 mg): 225 ng·h/mL
Cmax ([3]; 18.75 mg): 144 ng/mL
t1/2 (elimination half-life) ([3]; 18.75 mg): 5.2 h
Time stable at room temperature [2]: at least 1 week
Deviation from nominal concentration (%) ([2]; 4°C, 6 h): −7%
Deviation from nominal concentration (%) ([2]; RT, 1 wk): 6%
Deviation from nominal concentration (%) ([2]; RT, 24 h): −2%
Deviation from nominal concentration (%) ([2]; RT, 48 h): −5%
Deviation from nominal concentration (%) ([2]; RT, 72 h): −1%
Time stable at −80°C [2]: at least 9 months
Time stable at room temperature (abstract) [2]: 1 week
Time stable at −80°C (abstract) [2]: 9 months
Compound: COC(=O)[C@H](c1ccccc1Cl)N1CCc2sccc2C1 [Clopidogrel, S-(+)-clopidogrel hydrogen sulfate, reference compound]
Proportion metabolized in the liver to inactive clopidogrel carboxylic acid [4]: 85%
Prevention of feline cardiogenic thromboembolism [5]: superior to aspirin
Cmax in humans ([6]; healthy humans / people): 20 ng/mL
Tmax in people ([6]; post administration): around 1 hour

Source: publication PMC5557681 (Journal of veterinary cardiology : the official journal of …, 2017)
